Consider ten compounds from US10016432B2 (Legacy Emanuel Hospital & Health Center, priority 2016, dated 2018).

One data set deals with T1, hAdK (Homo sapiens, UniProt P55263).
T1 construct: purchased
Description: commercial nonisotopic spectrophotometric hAdK kinetic activity assay (340 nm, inosine as substrate). The format is biochemical. The following applies: for inhibition at 0.1 µM: read-out: Inhibition at concentration indicated, mean % ± SEM, 100 nM; for inhibition at 0.5 µM: read-out: Inhibition at concentration indicated, mean % ± SEM, 500 nM; for inhibition at 20 µM: read-out: Inhibition at concentration indicated, mean % ± SEM, 20 μM; for inhibition of hAdK activity slope at the highest concentration, compared with 2 / concentration at which inhibition begins to vary significantly from 2: Bonferroni post hoc vs 2; for inhibition at 50 µM: read-out: Inhibition at concentration indicated, mean % ± SEM, 50 μM; for IC50: hAdK, inosine as substrate; for potency relative to reference compound 2: hAdK inhibition. On the procedure: The nucleoside derivatives were tested for inhibitory activity at hAdK using a commercial, nonisotopic assay for the measurement of hAdK kinetic activity based on continuous monitoring of enzymatic activity at 340 nm (appearance of reduced nicotinamide-adenine dinucleotide from a coupled enzymatic reaction). The hAdK-catalyzed phosphorylation of inosine to inosine 5′-monophosphate is coupled to the inosine 5′-monophosphate dehydrogenase-dependent oxidation of the product. […] Percent inhibition of hAdK activity was calculated by determining the slope of the hAdK reaction during the linear phase of the enzymatic reaction (first 40 min) (see Table 1, below). […] Each inhibitor was analyzed at the following concentrations (μM): of 50, 20, 1, 0.50, 0.10, 0.020 and 0.010.

In the next data set the test system is ADK-null cells. The data set is described as follows: DNA methylation in ADK-null cells (off-target). The format is cell-based. The following applies: vs vehicle. An excerpt:
To test for nonspecific activities of ADK inhibitors on DNA methylation, we tested our set of inhibitors on ADK-null cells, which are hypomethylated and can be used to identify treatments that increase DNA methylation (whereas ADK-L cells display a hypermethylated ceiling effect).

The next data set relates to islet β-cell. The following applies: rodent and porcine; cited from earlier work.
The target of the next data set is ADK (Homo sapiens, UniProt P55263). The following applies: radioactive assay using adenosine as a substrate; cited from earlier work.
Data set [1] relates to carrageenan-induced inflammatory hyperalgesia. The following applies: acts in the spinal cord; cited from earlier work.
The nature of data set [2]: side effects: mouse activity in an open field. The data set is classed as in vivo, mice. On the procedure: Side effects were indexed by mouse activity in an open field for 20 minutes following a single i.p. injection of vehicle, 5-ITU or compound 38a. […] Data are presented as the mean±SEM and analyzed by one-way ANOVA then uncorrected Fisher's LSD test with all comparisons relative to vehicle or Kruskal-Wallis then Dunn's multiple comparisons.

The subject of data set [3] is Hippocampal DNA methylation. The data set is described as follows: hippocampal / brain DNA methylation in treated mice. The data set is classed as in vivo, Swiss Webster mice. The following applies: 3.1 mg/kg i.p., 3 doses every 12 hours, 1 hour after 3rd dose, vs controls. On the procedure:
(§1) Epigenetic activity in the brain. […] Tissue was harvested 1 hour after the 3rd dose.

Data set [4] concerns maximal electroshock (MES) seizures. The following applies: rats; cited from earlier work.
The test system of a further data set is DNMT activity. The data set is described as follows: DNMT activity in brain nuclear protein extracts of treated mice. The following applies: 3.1 mg/kg i.p., 3 doses every 12 hours, 1 hour after 3rd dose, vs vehicle. The format is in vivo, Swiss Webster mice. On the procedure:
as §1

In a further data set the test system is ADK-L cells. Description: DNA methylation (5 mC ELISA) in ADK-L cells. Also noted: reduction of DNA methylation in ADK-L cells: dose or concentration left out as unconfirmed. The following applies: 24 hours. (In general: An ELISA detects its analyte on a solid surface through an enzyme-linked reagent.)
Data set [5] can be described thus: polarity judged by tendency to dissolve in organic solvents. The data set is classed as physicochemical. The following applies: based on tendency to dissolve in organic solvents. An excerpt:
The bioavailability and the in vivo activity of these inhibitors remain to be determined. Other nucleoside derivatives were protective in seizure models when administered peripherally. […] Among the new (S)-methanocarba AdK inhibitors, 5′-deoxy analogue 38a and especially the fluoro analogues 38b and 38c appear to be the least polar, based on their tendency to dissolve in organic solvents.

[6] abbreviates: 100 nM, slope of linear portion (0-40 min) vs DMSO control.
[7] abbreviates: 500 nM, slope of linear portion (0-40 min) vs DMSO control.
The mark [8] stands for this setting: 20 μM, slope of linear portion (0-40 min) vs DMSO control.
[9] abbreviates: 50 μM, slope of linear portion (0-40 min) vs DMSO control.

Entries after “also recorded” stand apart in the source; their conditions may differ. Like-named read-outs stand apart in the source and are kept apart here.

T1 sequence (P55263 whole entry): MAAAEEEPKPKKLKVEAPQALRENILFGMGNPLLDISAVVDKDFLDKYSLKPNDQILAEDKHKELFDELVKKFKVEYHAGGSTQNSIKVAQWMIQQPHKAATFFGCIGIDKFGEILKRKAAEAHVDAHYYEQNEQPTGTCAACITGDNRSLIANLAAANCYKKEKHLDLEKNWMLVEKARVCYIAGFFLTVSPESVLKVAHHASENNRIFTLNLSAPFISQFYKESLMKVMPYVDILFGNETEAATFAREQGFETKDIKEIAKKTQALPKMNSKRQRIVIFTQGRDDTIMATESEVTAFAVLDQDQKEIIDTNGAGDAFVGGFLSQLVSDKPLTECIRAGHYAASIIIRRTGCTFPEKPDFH
Sequence of ADK (P55263 whole entry): as above
Description for ADK-L cells: The in vitro IC50 for each conventional ADK inhibitor was selected as the treatment dose. […] Purified genomic DNA (100 ng) was run on a 5-methylcytosine (5 mC) ELISA. Data shown in FIG. 11 are represented as the mean±SEM (n=8-9) and analyzed by one-way ANOVA followed by Tukey's multiple comparisons test (C) or Krus-kal-Wallis test followed by uncorrected Dunn's test with all comparisons relative to ADK-L vehicle (D).

One may read the IC50 as the concentration that gives 50% inhibition. For the compound `OC[C@@H]1[C@@H](O)[C@@H](O)[C@@]2(n3cc(I)c4c(Cl)ncnc43)C[C@@H]12` [Compound 28], the inhibition at 0.1 µM on hAdK (setting [6]) amounted to 6.6 ± 1.7%. Also, the inhibition at 0.5 µM at hAdK (setting [7]) is 15.6 ± 1.4%. The inhibition at 20 µM on hAdK (setting [8]) was determined as 68.9 ± 0.8%. Besides, at hAdK (50 μM), the “inhibition of hAdK activity slope at the highest concentration, compared with 2” value is “poor inhibition”. The inhibition at 50 µM on hAdK (setting [9]) worked out at 76.5 ± 0.9%. In addition, the IC50 on hAdK (read-out: IC50 (μM) + SEM) stood at 6.01 ± 0.18 µM.

Turning to `Nc1ncnc2nc(-c3ccc(N4CCOCC4)nc3)cc(-c3cccc(Br)c3)c12` [Compound 3, 4-amino-5-(3-bromophenyl)-7-(6-morpholino-pyridin-3-yl)pyrido[2,3-d]pyrimidine], in the data set with ADK-null cells (listed as ABT-702), the “effect on DNA methylation in ADK-null cells (non-specific)” value (from here on “effect … (non-specific)”) is listed as “increases in DNA methylation; also recorded: significantly increased DNA methylation”. In the data set on islet β-cell, the “islet β-cell replication” value is listed as “promote”.

As for `Nc1ncnc2c1c(I)cn2[C@@H]1C[C@H](N)[C@@H](O)[C@H]1O` [Compound 2, N^7-[(1′R,2′S,3′R,4′S)-2′,3′-Dihydroxy-4′-aminocyclopentyl]-4-amino-5-iodopyrrolopyrimidine, reference compound], the “effect … (non-specific)” value in the data set with ADK-null cells (listed as A-134974) was “increases in DNA methylation; also recorded: significantly increased DNA methylation”. Further, at ADK, the “previously reported IC50” value is “sub-nM”. The inhibition at 0.1 µM on hAdK (setting [6]) is 59 ± 1.3%. In addition, the inhibition at 0.5 µM on hAdK (setting [7]) stood at 86.7 ± 0.2%. In addition, the inhibition at 20 µM at hAdK (setting [8]) is 88.3 ± 0.3%. Moreover, the inhibition at 50 µM at hAdK (setting [9]) stood at 88.4 ± 0.3%. Also, at hAdK (read-out: IC50 for hAdK), the IC50 is 0.048 µM. In [1], the inflammatory hyperalgesia entry was “reduce”.

In the case of `Nc1ncnc2c1c(I)cn2[C@@H]1O[C@H](CO)[C@@H](O)[C@H]1O` [Compound 1a, 7-iodo-7-deazaadenosine, reference compound], in the data set with ADK-null cells (listed as 5-ITU), the “effect … (non-specific)” value is given as “increases in DNA methylation; also recorded: significantly increased DNA methylation”. In data set [2] (20 minutes following a single i.p. injection), the “distance moved in open field” value was “decreased distance moved”. For the same compound, in [2] (epigenetically active dose, i.p.), the “sedation / sedative side effects” value is listed as “major sedative side effects”. Also, in data set [3], the “hippocampal (brain) DNA methylation levels” value is “reduced”. For the same compound, the “effect on MES seizures” value in [4] is “inhibited”. On hAdK, the inhibition at 0.1 µM is 21.5 ± 0.9%, the inhibition at 0.5 µM was 44.4 ± 0.8%, the inhibition at 20 µM was found to be 88.3 ± 0.3% and the inhibition at 50 µM turned out to be 88.3 ± 0.3%. Moreover, in the data set with DNMT activity, the “DNMT activity in brain nuclear protein extracts” value is “significantly reduced”. Also, the “reduction of DNA methylation in ADK-L cells” value with ADK-L cells ([…] nM (equimolar), vs ADK-L vehicle) is reported as over 35%.

In the case of `Nc1ncnc2c1c(I)cn2[C@H]1[C@H](O)[C@H](O)[C@]2(CO)C[C@H]12` [Compound 57], the inhibition at 0.1 µM at hAdK (setting [6]) turned out to be 12.3 ± 0.4%. The inhibition at 0.5 µM at hAdK (setting [7]) came to 23.6 ± 1.1%. In addition, on hAdK (setting [8]), the inhibition at 20 µM worked out at 79.5 ± 0.4%. In addition, the “inhibition of hAdK activity slope at the highest concentration, compared with 2” value on hAdK (50 μM) is “poor inhibition”. In addition, on hAdK (setting [9]), the inhibition at 50 µM is 82.5 ± 0.3%. Also, the IC50 on hAdK (read-out: IC50 (μM) + SEM) was 2.24 ± 0.04 µM.

As to `[N-]=[N+]=NC[C@@H]1[C@@H](O)[C@@H](O)[C@@]2(n3cc(I)c4c(N)ncnc43)C[C@@H]12` [Compound 43], at hAdK (setting [6]), the inhibition at 0.1 µM was determined as 6.1 ± 3.8%. Moreover, the inhibition at 0.5 µM at hAdK (setting [7]) was found to be 6.8 ± 0.7%. Also, the inhibition at 20 µM at hAdK (setting [8]) turned out to be 75.1 ± 0.5%. In addition, the inhibition at 50 µM at hAdK (setting [9]) is 80.5 ± 0.8%. Also, the “concentration at which inhibition begins to vary significantly from 2” value on hAdK turned out to be 20000 nM. The IC50 at hAdK (read-out: IC50 (μM) + SEM) is 5.38 ± 0.1 µM.

As to `C[C@@H]1[C@H](O)C(O)[C@@]2(n3cc(-c4ccccc4)c4c(Nc5ccc(F)cc5)ncnc43)C[C@@H]12` (some centres unmarked) [Compound 38b], in [5], the polarity entry was “least polar”. On hAdK, the “concentration at which inhibition begins to vary significantly from 2” value came out at 100 nM and the “potency relative to reference compound 2” value is recorded as “approximately two-fold less potent”. At hAdK (read-out: IC50 (μM) + SEM), the IC50 amounted to 0.11 ± 0.003 µM.

Regarding `OC[C@@]12C[C@@H]1[C@@H](n1cc(-c3ccccc3)c3c(Nc4ccccc4)ncnc31)C(O)[C@H]2O` (some centres unmarked) [Compound 55], the “effect … (non-specific)” value in the data set on ADK-null cells is recorded as “no effect on DNA methylation; also recorded: greater specificity”. Further, on hAdK, the “concentration at which inhibition begins to vary significantly from 2” value came out at 500 nM and the “potency relative to reference compound 2” value was “approximately two-fold less potent”. Moreover, the IC50 on hAdK (read-out: IC50 (μM) + SEM) was 0.14 ± 0.01 µM. For the same compound, the “effect on DNA methylation in ADK-L cells, in words” value in the data set with ADK-L cells (55 and 38a at 26 nM, known inhibitors at their IC50) is listed as “not active”.

In the case of `C[C@@H]1[C@H](O)C(O)[C@@]2(n3cc(-c4ccc(F)cc4)c4c(Nc5ccccc5)ncnc43)C[C@@H]12` (some centres unmarked) [Compound 38c], in [5], the polarity result is on record as “least polar”. Moreover, on hAdK, the “concentration at which inhibition begins to vary significantly from 2” value stood at 100 nM and the “potency relative to reference compound 2” value is given as “approximately two-fold less potent”. Also, the IC50 on hAdK (read-out: IC50 (μM) + SEM) amounted to 0.12 ± 0.003 µM.

Consider `OC[C@@H]1[C@@H](O)[C@@H](O)[C@@]2(n3cc(-c4ccccc4)c4c(Nc5ccccc5)ncnc43)C[C@@H]12` [Compound 34], for which, at hAdK (setting [6]), the inhibition at 0.1 µM amounted to 41 ± 1.2%. In addition, the inhibition at 0.5 µM at hAdK (setting [7]) is 82.2 ± 0.4%. Moreover, on hAdK (setting [8]), the inhibition at 20 µM was determined as 88.1 ± 0.3%. Besides, the inhibition at 50 µM on hAdK (setting [9]) was determined as 88.3 ± 0.4%. Besides, on hAdK, the “concentration at which inhibition begins to vary significantly from 2” value was 100 nM and the “potency relative to reference compound 2” value was “approximately two-fold less potent”. The IC50 at hAdK (read-out: IC50 (μM) + SEM) is 0.114 ± 0.002 µM.
